Data reported in patent US20040010001A1, “Methods and compositions for modulating cell proliferation and cell death” (priority 1999, published 2004).

Experiments:
[1] = system: bladder, breast, head and neck, ovarian and prostate tumors from human patients; experiment: Paclitaxel in histocultures of tumors obtained from human patients; type: cell-based; conditions: 96 tumors; bladder 2 hours, remaining tumors 96 hours
Description: The third study examined the relationship between the levels of aFGF and bFGF in human tumors and tumor sensitivity to anticancer agents. This study was performed using 96 tumors obtained from human patients, including include bladder, breast, head and neck, ovarian and prostate tumors. Paclitaxel was used as the model drug. […] The drug-induced antiproliferation was measured by inhibition of DNA precursor incorporation, and apoptosis was measured by morphological changes and by labeling of nicked DNA. aFGF, bFGF and other proteins known to contribute to drug resistance (i.e. the mdr1 p-glycoprotein, p53 and bcl-2) were detected by immunohistochemical staining.

[2] = system: Human prostate PC3 tumor cells; experiment: Intracellular drug accumulation with or without CM or r-bFGF; conditions: unchanged with or without CM or r-bFGF; 1 nM paclitaxel, 50 nM doxorubicin, 500 nM 5-fluorouracil; 4 hours
rat MAT-LyLu tumor cells = experiment: as above; conditions: unchanged with or without CM or r-bFGF; 10 nM paclitaxel, 100 nM doxorubicin, 500 nM 5-fluorouracil

Row | plateau intracellular concentration [2] | plateau intracellular concentration (rat MAT-LyLu tumor cells) | Structure (SMILES) | tumors in which antiproliferation was produced [1] | tumors in which apoptosis was induced [1]
1 | – | – | CC(=O)O[C@H]1C(=O)[C@@]2(C)[C@H]([C@H](OC(=O)c3ccccc3)[C@]3(O)C[C@H](OC(=O)[C@H](O)[C@@H](NC(=O)c4ccccc4)c4ccccc4)C(C)=C1C3(C)C)[C@]1(OC(C)=O)CO[C@@H]1C[C@@H]2O [Paclitaxel] | 84% | 96%
2 | 40 pmol/10^6 cells | 80 pmol/10^6 cells | COc1cccc2c1C(=O)c1c(O)c3c(c(O)c1C2=O)C[C@@](O)(C(=O)CO)C[C@@H]3O[C@H]1C[C@H](N)[C@H](O)[C@H](C)O1 [Doxorubicin] | – | –
